Test results taken from patent US20160115540A1, “PRODRUGS AND DRUGS” (Biogen MA Inc., priority 2013, published 2016).
Where a name gives a salt, the structure may show the parent alone.

Test system: jejunum
Assay: Transcriptional profiling on Affymetrix GeneChips, single dose, naïve mice: jejunum
Assay type: in vivo, C57BL/6 mice
Settings: jejunum, 100DMF-vs-Veh
Description: Treated mice were sacrificed at 2, 7, or 12 hours. Tissues (liver, spleen, kidney, jejunum, cortex, hippocampus, striatum and whole blood) were collected and analyzed by transcriptional profiling on mouse Affymetrix GeneChips.
Tissues (liver, spleen, kidney, jejunum, cortex, hippocampus, striatum and whole blood) were collected and analyzed by transcriptional profiling on mouse Affymetrix GeneChips.
Animals were exposed to CO2 and whole blood collected via cardiac puncture. Two 100 μl aliquots of whole blood were collected in 1.5 mL microcentrifuge tubes and snap frozen in liquid nitrogen. Peripheral (liver, spleen, kidney and jejunum) and CNS brain (cerebellum, hippocampus, striatum and cortex) tissues were harvested and snap frozen in liquid nitrogen, with special care taken to collect tissues of similar size and from the same location. All samples were stored at −80° C. until RNA extraction was conducted.
For RNA preparation, frozen tissues were placed in 2 mL RNAse-free 96-well blocks with 1.5 mL QIAzol Lysis Reagent (QIAgen) and a 3.2 mm stainless steel bead (BioSpec Products, Bartlesville, Okla.). Tissues were disrupted for four cycles of 45 seconds in a Mini-Beadbeater (Biospec Products). RNA was extracted in chloroform and the aqueous phase was mixed with an equal volume of 70% ethanol. Extracted RNA was applied to RNeasy 96 plates and purified by the spin method according to the manufacturer's protocol (RNeasy 96 Universal Tissue Protocol, QIAgen, Hilden Germany).
Automated sample amplifications and biotin labelings were carried out using the NuGEN Ovation RNA Amplification system V2 (Cat #3100), Ovation WB reagent (Cat #1300) and Encore Biotin module (Cat #4200) (NuGEN Technologies, Inc, San Carlos, Calif.) according to manufacturer's recommendations using an Arrayplex automated liquid handler (Beckman Coulter, Indianapolis, Ind.). Two micrograms of biotin labeled sscDNA probe were hybridized to Affymetrix GeneChip Affymetrix HT_MG-430_PM plate arrays with modified conditions as described in Allaire et al. Washing and staining of the hybridized arrays were completed as described in the GeneChip Expression analysis technical manual for HT plate arrays using the Genechip® Array Station (Affymetrix, Santa Clara, Calif.) with modifications as described in Allaire et al. The processed GeneChip® plate arrays were scanned using GeneTitan scanner (Affymetrix, Santa Clara, Calif.).
Affymetrix scans were subject to quality control (QC) measures. These tests included a visual inspection of the distribution of raw signal intensities and an assessment of RNA degradation, relative log expression (RLE), and normalized unsealed standard error (NUSE). All sample scans that passed these QC metrics were included in the analysis.
All CEL files were subjected to GC-content-based Robust Multi-array Average (GCRMA) normalization (version 2.20.0) (Irizarry R A, et al. Nucleic Acids Res 2003; 31:e15; Li C, et al. Genome Biol 2001; 2:[…]0032). Expression levels were log (base 2) transformed.
All calculations and analyses were carried out using R (version 2.11.1) and Bioconductor computational tools (Gentleman R. Springer Science+Business Media 2005).

## COC(=O)/C=C/C(=O)OC [DMF, dimethyl fumarate]
2 h
  FC Tox3 (1436600_PM_at): 1.70
  FC Tsku (1440230_PM_at): 1.61
  FC Ugt2b5 (1419622_PM_at): 3.40
  FC Ugt2b35 (1439624_PM_at): 3.22
  FC Ugt2b36 (1455595_PM_at): 2.07
  FC Unc5cl (1429950_PM_at): −1.53
  FC probe 1441046_PM_at: 1.54
  FC probe 1443118_PM_at: 1.91
  FC probe 1444265_PM_at: 1.75
  FC probe 1445980_PM_at: 2.92
  FC probe 1446045_PM_at: 1.52
  FC probe 1447411_PM_at: 2.88
  FC probe 1459091_PM_at: 1.98
7 h
  FC 9430069I07Rik (1431672_PM_at): 2.76
  FC Abcc3 (1428988_PM_at): 1.88
  FC Acsm5 (1437662_PM_at): 1.60
  FC Acss2 (1446542_PM_at): 1.71
  FC Akr1b8 (1448894_PM_at): 8.53
  FC Akr1c13 (1418672_PM_at): 1.61
  FC Akr1c19 (1455454_PM_at): 2.07
  FC Cbr1 (1460196_PM_at): 1.65
  FC Cbr3 (1427912_PM_at): 22.39
  FC Ces1e (1419510_PM_at): 2.10
  FC Ces1f (1424266_PM_s_at): 3.58
  FC Ces1g (1449486_PM_at): 4.67
  FC Ddc (1426215_PM_at): 1.74
  FC G6pd2 (1422327_PM_s_at): 1.82
  FC G6pdx (1448354_PM_at): 1.54
  FC Gclc (1424296_PM_at): 2.06
  FC Gclc (1455959_PM_s_at): 1.88
  FC Gsr (1421816_PM_at): 2.83
  FC Gss (1441931_PM_x_at): 1.89
  FC Gss (1448273_PM_at): 1.97
  FC Gsta2 (1421040_PM_a_at): 5.81
  FC Gsta2 (1421041_PM_s_at): 1.72
  FC Gsta3 (1423436_PM_at): 4.27
  FC Gsta3 (1423437_PM_at): 3.89
  FC Gstm1 (1416416_PM_x_at): 3.19
  FC Gstm1 (1425627_PM_x_at): 3.45
  FC Gstm1 (1448330_PM_at): 3.40
  FC Gstm2 (1416411_PM_at): 1.58
  FC Gstm3 (1427473_PM_at): 2.82
  FC Gstm3 (1427474_PM_s_at): 1.79
  FC Gstm4 (1424835_PM_at): 3.83
  FC Gstm6 (1422072_PM_a_at): 1.94
  FC Htatip2 (1451814_PM_a_at): 1.51
  FC Nqo1 (1423627_PM_at): 2.31
  FC Pir (1429001_PM_at): 3.79
  FC Setd4 (1425239_PM_at): 1.90
  FC Setd4 (1435405_PM_at): 1.50
  FC Setd4 (1460373_PM_a_at): 1.50
  FC Slc5a4b (1422757_PM_at): 1.67
  FC Txnrd1 (1424487_PM_x_at): 1.60
  FC Ugt2b5 (1419622_PM_at): 3.42
  FC Ugt2b35 (1439624_PM_at): 2.66
  FC Ugt2b36 (1455595_PM_at): 2.23
12 h
  FC Aldh1a7 (1418601_PM_at): 1.65
  FC Gstm1 (1416416_PM_x_at): 3.56
  FC Gstm2 (1416411_PM_at): 2.04
